In brackets after ≈: the same amount, converted by molar mass. Where two headings read alike, the source gives them in different places. Each block holds one molecule with its values, some of them ahead of it.
What was measured:
[1] = test system: HIV-1, strain IIIb; assay: microbe, parasite or virus in culture; assay type: cell-based
Experimental: Adsorption was allowed for 2 hours at 37° C. […] Test compound was added after stimulation and virus adsorption.
(§1) IC50 and IC90 values were calculated by comparing the p24 antigen concentrations in supernatent of treated, infected cells and uncreated, infected cells at days 11 and 14 post infection.

[2] = test system: HIV-1 (HTLV-IIIB); assay: microbe, parasite or virus in culture; assay type: cell-based; conditions: MT-4 cells, 100 CCID50, 5 days, MTT
[3] = test system: Jurkat cells; assay: Growth of exponentially growing cells (cell numbers); assay type: cell-based
[4] = test system: U937 cell line
[5] = test system: MOLT4 cells
[6] = test system: MT4 cells
[7] = test system: HIV-1 strain IIIb; assay: Time-of-addition experiment, MT4 cells infected with HIV-1 IIIb, p24 antigen; assay type: cell-based; conditions: HIV-1 IIIb at high multiplicity, p24 at 29 hours after infection
Experimental: To pinpoint the stage at which the compounds interact with the HIV replicative cycle, a time-of-addition experiment was carried out on MT4 cells infected with HIV-1 strain IIIb at high virus multiplicity to ensure that the virus replicative steps would be synchronised in the whole cell populations. Test compounds wife added 1, 2, 3, . . . 22, 23, 24 hours after infection, and vital p24 antigen production determined 29 hours after infection.
Depending on the stage at which compounds interact and the need for intracellular metabolism, addition of the compounds could be delayed for n hours without loss of activity.

[8] = test system: HIV-1, BaL; assay: microbe, parasite or virus in culture; assay type: cell-based
Experimental: Mononuclear cells were isolated from healthy, HIV-negative donors using Ficoll density separation. Cells (4×10^6/ml) were incubated for 5 days in 48 well plates (Costar) in monocyte medium consisting of RPMII640, supplemented with 20% ECS and 10% human serum. On day 5 non-adherent cells were washed out four times with warm PBS containing 2% human serum.
The monocytotropic strain of HIV-1, BaL, was used for the infection of these monocyte preparations (Pemo et al, 1 Exp Meal, 169, 933, 1989).
Adherent monocytes were exposed to […] of a 1:30 dilution of HIV-1, BaL for 30 minutes subsequently, monocyte medium was added to 1 ml/well. Adsorption was allowed for 24 hours at 37° C. Then, the wells were washed twice in order to remove excess virus and were cultivated in the presence of different drug concentrations. Thus, test compounds were added after adsorption. Every 3 to 4 days post infection the supernatant of the infected cultures was removed and replaced by fresh medium containing the test compound at the particular concentration. The concentration of viral p24 antigen was determined as described above.
as §1

[9] = test system: MT-4 cells; assay: Cytotoxicity by MTT method in MT-4 cells; assay type: cell-based
[10] = test system: gp120/41 mediated fusion; conditions: HIV-1 IIIb infected HUT78 cells with MOLT4 cells
Description: Syncytium formation between chronically infected cells and uninfected cells reflects the gp120/41 mediated fusion process of vital entry.

[11] = test system: low-passage primary clinical isolates of HIV-1 (K31, D370, K6/2); conditions: primary T4 cells; isolates K31 Zaire, D370 California, K6/2 Germany
Experimental: Primary T4 lymphocytes were purified from human spleens obtained from healthy donors by using a commercial kit (“Lympho-Kwik”) which combines reaction of cells with specific monoclonal antibodies and density gradient centrifugation to separate the cells. […] Cells were stimulated with 2 μg/ml PHA for 24 hours. Then they were spun down and infected with HIV-1, strain IIIb, by suspending the cells 10-fold concentrated in virus solution. Adsorption was allowed for 2 hours at 37° C. The inoculum was removed by centrifugation and the cells were re-suspended at their original concentration in fresh culture medium containing IL-2 (40 IE/ml). Test compound was added after stimulation and virus adsorption. Every 3 to 4 days post infection half of the supernatant of the infected cultures was removed and replaced by fresh medium containing the test compound at the particular concentration, The concentration of vital p24 antigen was determined in the supernatent by means of a commercial ELISA kit (Coulter) and served as a parameter for virus production.

[12] = test system: HUT78 cells; conditions: concentrations below 300 μg/ml; cell numbers 2, 3 and 4 days after seeding
[13] = test system: HIV-2 (LAV-2 ROD); assay: MTT anti-viral screen, MT-4 cells challenged with HIV-2; assay type: cell-based; conditions: Human immunodeficiency virus 2, MT4, 120 h, read-out: IC50 HIV-2 (ROD)
[14] = test system: HIV-1 IIIb, RF, HE and NDK strains; assay: microbe, parasite or virus in culture; conditions: Human immunodeficiency virus 1, IIIB, MT4, read-out: IC50 against IIIb, RF, HE and NDK strains
Experimental: The compounds of the invention were tested in a screen by the MTT method (I Vixol Methods […] [1988]). MT-4 cells (2.5×10^4/well) were challenged with HIV-1 (HTLV-IIIB) or HIV-2 (LAV-2 ROD) at a concentration of 100 CCID50 and incubated in the presence of various concentrations of the test compounds, which were added immediately after challenge with the virus. After 5 days culture at 37° C. in a CO2 incubator, the number of viable cells was assessed by the MTT (tetrazolium) method. […] The potential therapeutic usefulness was assessed by calculating a Selectivity Index (SI) corresponding to the ratio of CC50 to IC50.

[15] = test system: HIV uncoating (or fusion); assay: Sensitivity of viral RNA from freshly infected MT4 cells to RNase degradation (uncoating); assay type: cell-based; conditions: radiolabelled viral particles, RNA harvested 4 hours after infection
Description: It was reasoned that if tincoating (fusion) was hampered, the viral capsid (or envelope) proteins would remain associated with the viral RNA genome and thus the RNA should be protected against RNase attack.

[16] = Cytotoxicity by MTT method in MT-4 cells; assay type: cell-based; conditions: human
[17] = Lymphocytes, HIV-1 IIIb, p24, day 11 post infection
[18] = Lymphocytes, HIV-1 IIIb, p24, day 14 post infection
[19] = Monocytes, HIV-1 BaL, p24, day 11 post infection
[20] = Monocytes, HIV-1 BaL, p24, day 14 post infection
[21] = concentrations below 300 μg/ml, cell numbers 2, 3 and 4 days after seeding

IC50 day 11 [1, 17]: 0.45 ng/mL (≈ 1.68 nM) | IC90 day 11 [1, 17]: 2.2 ng/mL (≈ 8.23 nM) | IC50 day 14 [1, 18]: 0.43 ng/mL (≈ 1.61 nM) | IC90 day 14 [1, 18]: 1.1 ng/mL (≈ 4.12 nM) | IC50 HIV-1 (IIIB) [2]: <8 ng/mL | IC50 day 11 [8, 19]: 1 ng/mL (≈ 3.74 nM) | IC90 day 11 [8, 19]: 1.5 ng/mL (≈ 5.61 nM) | IC50 day 14 [8, 20]: 1 ng/mL (≈ 3.74 nM) | IC90 day 14 [8, 20]: 1.7 ng/mL (≈ 6.36 nM)
SMILES: Cc1cn([C@H]2C[C@H](N=[N+]=[N-])[C@@H](CO)O2)c(=O)[nH]c1=O [AZT, reference compound]
TC50 ([3]; Jurkat): 184000 ng/mL (≈ 689000 nM) | TC50 ([4]; U937): 5000 ng/mL (≈ 18700 nM) | TC50 ([5]; MOLT4): 37000 ng/mL (≈ 138000 nM) | TC50 ([6]; MT4): 23000 ng/mL (≈ 86100 nM) | n, hours addition could be delayed after infection without loss of activity [7]: ~4 h | CC50 (HIV-1 (IIIB)) [9]: >1000 ng/mL

SMILES: c1cc(CN2CCCNCCNCCCNCC2)ccc1CN1CCCNCCNCCCNCC1 [Compound B, 1,1′-[1,4-phenylenebis(methylene)]bis-1,4,8,11-tetraazacyclotetradecane]
concentrations required for inhibition of fusion (syncytium formation) [10]: approximately 1 μg/ml | inhibition of viral replication [11]: strong inhibitor | inhibition of cell growth [12]: did not inhibit growth | IC90 ([1]; Human immunodeficiency virus 1, IIIB, Lymphocyte, primary T4 lymphocytes, stated for both primary cell types, read-out: IC90 values): 1 to 2 ng/mL (≈ 1.99 to 3.98 nM) | IC50 ([1]; Human immunodeficiency virus 1, Lymphocyte, 264 h, Lymphocytes, HIV-1 IIIb, p24, day 11 post infection, read-out: IC50 day 11): < 1 ng/mL | IC90 ([1]; Human immunodeficiency virus 1, Lymphocyte, 264 h, Lymphocytes, HIV-1 IIIb, p24, day 11 post infection, read-out: IC90 day 11): < 1 ng/mL | IC50 ([1]; Human immunodeficiency virus 1, Lymphocyte, 336 h, Lymphocytes, HIV-1 IIIb, p24, day 14 post infection, read-out: IC50 day 14): < 1 ng/mL | IC90 ([1]; Human immunodeficiency virus 1, Lymphocyte, 336 h, Lymphocytes, HIV-1 IIIb, p24, day 14 post infection, read-out: IC90 day 14): 1 ng/mL (≈ 1.99 nM) | IC50 [13]: < 10 ng/mL | IC50 ([2]; Human immunodeficiency virus 1, IIIB, MT4, 120 h, read-out: IC50 HIV-1 (IIIB)): 6 ng/mL (≈ 11.9 nM) | inhibition of cell growth [3, 21]: did not inhibit growth | inhibition of cell growth [4, 21]: did not inhibit growth | IC50 [14]: 2 to 5 ng/mL (≈ 3.98 to 9.94 nM) | inhibition of cell growth [5, 21]: did not inhibit growth | inhibition of cell growth [6, 21]: did not inhibit growth | resistance of viral RNA to degradation by RNase [15]: showed resistance to degradation by RNaseA | IC90 ([8]; Human immunodeficiency virus 1, BAL, Monocyte, primary monocytes, stated for both primary cell types, read-out: IC90 values): 1 to 2 ng/mL (≈ 1.99 to 3.98 nM) | IC50 ([8]; Human immunodeficiency virus 1, Monocyte, 264 h, Monocytes, HIV-1 BaL, p24, day 11 post infection, read-out: IC50 day 11): < 1 ng/mL | IC90 ([8]; Human immunodeficiency virus 1, Monocyte, 264 h, Monocytes, HIV-1 BaL, p24, day 11 post infection, read-out: IC90 day 11): 1.9 ng/mL (≈ 3.78 nM) | IC50 ([8]; Human immunodeficiency virus 1, Monocyte, 336 h, Monocytes, HIV-1 BaL, p24, day 14 post infection, read-out: IC50 day 14): 1.1 ng/mL (≈ 2.19 nM) | IC90 ([8]; Human immunodeficiency virus 1, Monocyte, 336 h, Monocytes, HIV-1 BaL, p24, day 14 post infection, read-out: IC90 day 14): 2.1 ng/mL (≈ 4.18 nM) | CC50 at 5 days ([16]; CC50 (HIV-1 (IIIB))): > 500000 ng/mL | CC50 at 5 days ([16]; CC50 (HIV-2 (ROD))): > 500000 ng/mL

From patent publication USRE42152E1, “Aromatic-linked polyamine macrocyclic compounds with anti-HIV activity” (Genzyme Corporation, priority 1992, dated 2011)
